According to EP4624465A1, “COMPOUND SERVING AS DDR1 KINASE INHIBITOR, AND MEDICINE” (Nippon Shinyaku Co., Ltd., priority 2022, dated 2024):
Structures can show the parent of a compound that is named as a salt.

Tests used:
DDR1 kinase [1] = target: T1, DDR1 kinase (Homo sapiens, UniProt Q08345); test: Evaluation of DDR1 kinase inhibition in DDR1-expressing U2OS cells (type I collagen stimulation, PathHunter detection); assay type: cell-based; set-up: host or cells: U2OS; conditions: type I collagen 50 µg/mL stimulation, duplicate, read-out: DDR-1 IC50
Target sequence in this assay (Q08345 19-913): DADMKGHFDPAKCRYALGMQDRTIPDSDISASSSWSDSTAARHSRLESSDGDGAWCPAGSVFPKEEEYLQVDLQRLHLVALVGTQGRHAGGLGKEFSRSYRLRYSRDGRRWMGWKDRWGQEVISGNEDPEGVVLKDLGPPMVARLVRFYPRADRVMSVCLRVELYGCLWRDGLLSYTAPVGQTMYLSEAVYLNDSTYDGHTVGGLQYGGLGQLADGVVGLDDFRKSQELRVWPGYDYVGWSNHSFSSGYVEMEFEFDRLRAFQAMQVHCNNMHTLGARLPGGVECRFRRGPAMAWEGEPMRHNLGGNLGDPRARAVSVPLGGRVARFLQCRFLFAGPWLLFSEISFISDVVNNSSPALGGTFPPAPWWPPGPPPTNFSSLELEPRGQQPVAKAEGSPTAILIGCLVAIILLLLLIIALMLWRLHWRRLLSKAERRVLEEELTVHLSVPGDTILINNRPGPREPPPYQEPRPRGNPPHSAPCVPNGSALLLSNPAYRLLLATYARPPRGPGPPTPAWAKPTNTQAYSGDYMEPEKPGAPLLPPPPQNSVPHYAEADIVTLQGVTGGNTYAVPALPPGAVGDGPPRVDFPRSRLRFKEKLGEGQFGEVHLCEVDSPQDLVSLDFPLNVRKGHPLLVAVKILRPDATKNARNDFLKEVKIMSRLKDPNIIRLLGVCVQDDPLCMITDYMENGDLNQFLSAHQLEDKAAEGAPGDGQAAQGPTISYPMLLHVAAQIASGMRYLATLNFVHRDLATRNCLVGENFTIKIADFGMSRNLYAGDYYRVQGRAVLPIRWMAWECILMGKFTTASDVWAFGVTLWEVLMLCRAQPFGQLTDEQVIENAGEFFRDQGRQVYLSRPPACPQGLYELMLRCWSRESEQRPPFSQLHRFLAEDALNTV

DDR1 kinase [2] = target: T1, DDR1 kinase; test: Evaluation of DDR1 kinase inhibition (LANCE Ultra TR-FRET kinase assay); assay type: biochemical; set-up: purchased Carna Biosciences 08-113; conditions: DDR1 protein 0.5 nM, LANCE Ultra ULight-poly GAT substrate, 2 hours at room temperature, duplicate; read-out: DDR-1 IC50
Target sequence in this assay (Q08345 19-876 isoform Q08345-2 limits assumed): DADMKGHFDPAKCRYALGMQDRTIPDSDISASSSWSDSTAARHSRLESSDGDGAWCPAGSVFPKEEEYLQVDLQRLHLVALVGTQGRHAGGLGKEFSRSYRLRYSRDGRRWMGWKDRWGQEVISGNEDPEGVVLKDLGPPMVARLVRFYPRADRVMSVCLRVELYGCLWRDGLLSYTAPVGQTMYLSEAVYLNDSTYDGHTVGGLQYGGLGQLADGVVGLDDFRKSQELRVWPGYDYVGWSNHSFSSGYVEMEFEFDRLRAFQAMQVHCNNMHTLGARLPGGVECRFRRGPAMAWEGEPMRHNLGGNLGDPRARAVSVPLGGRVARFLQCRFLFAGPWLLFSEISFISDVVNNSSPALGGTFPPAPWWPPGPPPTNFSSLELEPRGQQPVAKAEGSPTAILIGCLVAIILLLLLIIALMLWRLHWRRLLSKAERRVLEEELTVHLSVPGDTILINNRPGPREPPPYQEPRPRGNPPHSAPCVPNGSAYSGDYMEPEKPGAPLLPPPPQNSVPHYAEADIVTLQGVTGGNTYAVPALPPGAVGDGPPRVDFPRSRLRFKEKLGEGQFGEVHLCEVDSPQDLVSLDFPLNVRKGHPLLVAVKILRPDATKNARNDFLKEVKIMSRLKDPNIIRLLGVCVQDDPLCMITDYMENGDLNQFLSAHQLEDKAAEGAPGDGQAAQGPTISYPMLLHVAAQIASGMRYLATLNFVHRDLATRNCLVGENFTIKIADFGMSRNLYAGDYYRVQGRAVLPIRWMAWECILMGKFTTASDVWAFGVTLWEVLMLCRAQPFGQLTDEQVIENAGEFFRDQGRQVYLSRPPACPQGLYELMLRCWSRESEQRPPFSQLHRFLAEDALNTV

IC50 (DDR1 kinase [1]) | IC50 (DDR1 kinase [2]) | Structure (SMILES)
100 nM | 1 nM | Nc1cc(C(=O)N2CCC(c3cn(CC(=O)N4CCC[C@H]4C(F)(F)F)c4cccc(F)c34)CC2)ccn1 [Compound E-108, 2-{3-[1-(2-aminopyridine-4-carbonyp)piperidin-4-yl]-4-fluoro-1H-indol-1-yl}-1-[(2S)-2-(trifluoromethyl)pyrrolidin-1-yl]ethan-1-one]
170 nM | 3.7 nM | Nc1cc(C(=O)N2CC(c3nn(Cc4ccc(C(F)(F)F)cc4)c4cccc(F)c34)C2)ccn1 [Compound E-112, 4-[3-(4-fluoro-1-{[4-(trifluoromethyl)phenyllmethyl}-1H-indazol-3-yl)azetidine-1-carbonyl]pyridin-2-amine hydrochloride]
470 nM | 25 nM | Nc1cc(C(=O)N2CC(c3nn(Cc4cccc(C(F)(F)F)c4)c4cccc(F)c34)C2)ccn1 [Compound E-113, 4-[3-(4-fluoro-1-{[3-(trifluoromethyl)phenyllmethyl}-1H-indazol-3-yl)azetidine-1-carbonyl]pyridin-2-amine hydrochloride]
250 nM | 8.6 nM | Nc1cc(C(=O)N2CC(c3nn(Cc4nc(C(F)(F)F)no4)c4cccc(F)c34)C2)ccn1 [Compound E-115, 4-[3-(4-fluoro-1-{[3-(trifluoromethyn-1,2,4-oxadiazol-5-yl]methyl}-1H-indazol-3-yl)azetidine-1-carbonyl]pyridin-2-amine hydrochloride]
170 nM | 24 nM | O=C(c1ccnc(NC2CC2)c1)N1CC(c2nn(CC(=O)N3CCC[C@H]3C(F)(F)F)c3cccnc23)C1 [Compound E-121, 2-(3-{1-[2-(cyclopropylamino)pyridine-4-carbonyl]azetidin-3-yl}-1H-pyrazolo[4,3-b]pyridin-1-yl)-1-[(2S)-2-(trifluoromethyl)pyrrolidin-1-yl]ethan-1-one]
140 nM | 2.2 nM | Nc1cc(C(=O)N2CC=C(c3cn(CC(=O)N4CCC[C@H]4C(F)(F)F)c4cccc(F)c34)CC2)ccn1 [Compound E-124]
70 nM | 6.3 nM | Nc1nccc(C(=O)N2CC(c3nn(CC(=O)N4CCC[C@H]4C(F)(F)F)c4cc(F)cc(F)c34)C2)n1 [Compound E-129, 2-{3-[1-(2-aminopyrimidine-4-carbonyl)azetidin-3-yl}-4,6-difluoro-1H-indazol-1-yl}-1-[(2S)-2-(trifluoromethyl)pyrrolidin-1-yl]ethan-1-one]
82 nM | 5.7 nM | Cc1ccc2c(n1)c(C1CN(C(=O)c3ccnc(NC4CC4)c3)C1)nn2CC(=O)N1CCC[C@H]1C(F)(F)F [Compound E-130, 2-(3-(1-[2-(cyclopropylamino)pyridine-4-carbonyl]azetidin-3-yl}-5-methyl-1H-pyrazolo[4,3-b}pyridin-1-yl)-1-[(2S)-2-(trifluoromethyl)pyrrolidin-1-yl]ethan-1-one]
1100 nM | 9.8 nM | O=C(c1ccc2[nH]nnc2c1)N1CC(c2nn(CC(=O)N3CCC[C@H]3C(F)(F)F)c3cc(F)cc(F)c23)C1 [Compound E-169, 2-{3-[1-(1H-1,2,3-benztriazole-5-carbonyl)azetidin-3-yl]-4,6-difluoro-1H-indazol-1-yl}-1-[(2S)-2-(trifluoromethyl)pyrrolidin-1-yl]ethan-1-one]
43 nM | 2.8 nM | Nc1nccc(C(=O)N2CC(c3nn(CC(=O)N4CCC[C@H]4C(F)(F)F)c4ccccc34)C2)c1F [Compound E-196, 2-{3-[1-(2-amino-3-fluoropyridine-4-carbonyl)azetidin-3-yl]-1H-indazol-1-yl}-1-[(28)-2-(trifluoromethyl)pyrrolidin-1-yl]ethan-1-one]
6 nM | 1.6 nM | Nc1cc(C(=O)N2CC(c3nn(CC(=O)N4CCC[C@H]4C(F)(F)F)c4ccc(Cl)cc34)C2)c(F)cn1 [Compound E-206, 2-{3-[1-(2-amino-5-fluoropyridine-4-carbonyl)azetidin-3-yl}-5-chloro-1H-indazol-1-yl}-1-[(2S)-2-(trifluoromethyl)pyrrolidin-1-yl]ethan-1-one]

Continued, compound first:

Structure (SMILES) | IC50 (DDR1 kinase [1]) | IC50 (DDR1 kinase [2])
Cc1nc(N)oc1C(=O)N1CC(c2nn(CC(=O)N3CCC[C@H]3C(F)(F)F)c3cc(F)cc(F)c23)C1 [Compound E-110, 2-{3-{1-(2-amino-4-methyl-1,3-oxazole-5-carbonyl)azetidin-3-yl}-4,6-difluoro-1H-indazol-1-yl}-1-[(2S)-2-(trifluoromethyl)pyrrolidin-1-yl]ethan-1-one] | 110 nM | 45 nM
Nc1cc(C(=O)N2CC(c3nn(Cc4noc(-c5ccc(F)cc5)n4)c4cccc(F)c34)C2)ccn1 [Compound E-116, 4-[3-(4-fluoro-1-{[5-(4-fluorophenyl)-1,2,4-oxadiazol-3-yl]methyl}-1H-indazol-3-yl)azetidine-1-carbonyl]pyridin-2-amine] | 800 nM | 4.4 nM
Nc1nc(C(F)(F)F)c(C(=O)N2CC(c3nn(CC(=O)N4CCC[C@H]4C(F)(F)F)c4cc(F)cc(F)c34)C2)s1 [Compound E-139, 2-(3-{1-[2-amino-4-(trifluoromethyl)-1,3-thiazole-5-carbonyl]azetidin-3-yl}-4,6-difluoro-1H-indazol-1-yl)-1-[(2S)-2-(trifluoromethyl)pyrrolidin-1-yl]ethan-1-one] | 850 nM | 18 nM
Cc1c(C(=O)N2CC(c3nn(CC(=O)N4CCO[C@@H](C(F)(F)F)C4)c4cncc(F)c34)C2)ccnc1N [Compound E-180, 2-{3-[1-(2-amino-3-methylpyridine-4-carbonyl)azetidin-3-yl]-4-fluoro-1H-pyrazolo{3,4-c)pyridin-1-yl}-1-[(2R)-2-(trifluoromethyl)morpholin-4-yl}ethan-1-one] | 3000 nM | 22 nM
Cc1nc(N)sc1C(=O)N1CC(c2nn(CC(=O)N3CCCC3COC(F)(F)F)c3cncc(F)c23)C1 [Compound E-183, 2-{3-[1-(2-amino-4-methyl-1,3-thiazole-5-carbonylazetidin-3-yl)-4-fluoro-1H-pyrazolo[3,4-c]pyridin-1-yl}-1-[(2S)-2-[(trifluoromethoxy)methyl]pyrrolidin-1-yl]ethan-1-one p-toluenesulfonate] | 500 nM | 8.8 nM
Cc1ccc2c(n1)c(C1CN(C(=O)c3cc(N)ncc3F)C1)nn2CC(=O)N1CCOC(C(F)(F)F)C1 [Compound E-185, 2-{3-[1-(2-amino-5-fluoropyridine-4-carbonyl)azetidin-3-yl]-5-methyl-1H-pyrazolo(4,3-blpyridin-1-yl}-1-[{(2R)-2-(trifluoromethyl)morpholin-4-yl]ethan-1-one p-toluenesulfonate] | 3300 nM | 22 nM
Cc1ccc2c(n1)c(C1CN(C(=O)c3cc(N)ncc3F)C1)nn2CC(=O)N1CCOCC1(C)C [Compound E-186, 2-{3-[1-(2-amino-5-fluoropyridine-4-carbonyl)azetidin-3-yl]-5-methyl-1H-pyrazolo[4,3-b]pyridin-1-yl}-1-(3,3-dimethylmorpholin-4-yl)ethan-1-one p-toluenesulfonate] | 690 nM | 23 nM
CC1(C)COCCN1C(=O)Cn1nc(C2CN(C(=O)c3ccnc(N)c3)C2)c2ccccc21 [Compound E-188, 2-{3-[1-(2-aminopyridine-4-carbonyl)azetidin-3-yl]-1H-indazol-1-yl}-1-(3,3-dimethylmorpholin-4-yl)ethan-1-one] | 89 nM | 7.9 nM
CC(C)(C)NC(=O)Cn1nc(C2CN(C(=O)c3ccnc(N)c3)C2)c2c(F)cc(F)cc21 [Compound E-189, 2-(3-[1-(2-aminopyridine-4-carbonyl)azetidin-3-yl]-4,6-difluoro-1H-indazol-1-yl}-N-tert-butylacetamide] | 460 nM | 11 nM
Nc1nccc(C(=O)N2CC(c3nn(CC(=O)N4CCO[C@@H](C(F)(F)F)C4)c4ccccc34)C2)c1F [Compound E-194, 2-{3-[1-(2-amino-3-fluoropyridine-4-carbonyl)azetidin-3-yl]-1H-indazol-1-y1}-1-[(2R)-2-(trifluoromethyl)morpholin-4-yl]ethan-1-one] | 370 nM | 4.8 nM
Cc1nc(N)sc1C(=O)N1CC(c2nn(CC(=O)N3CCC[C@H]3C(F)(F)F)c3ccccc23)C1 [Compound E-197, 2-(3-[1-(2-amino-4-methyl-1,3-thiazole-5-carbonyl)azetidin-3-yl]-1H-indazol-1-yl}-1-[(2S)-2-(trifluoromethyl)pyrrolidin-1-yl]ethan-1-one] | 150 nM | 2.3 nM
Nc1cc(C(=O)N2CC(c3nn(CC(=O)NCC(F)(F)F)c4ccccc34)C2)ccn1 [Compound E-211, 2-{3-[1-(2-aminopyridine-4-carbonyl)azetidin-3-yl]-1H-indazol-1-yl}-N-(2,2,2-trifluoroethyl)acetamide] | 290 nM | 27 nM
Nc1cc(C(=O)N2CC(c3nn(CC(=O)NC4CC(F)(F)C4)c4ccccc34)C2)ccn1 [Compound E-214, 2-{3-[1-(2-aminopyridine-4-carbonyl)azetidin-3-yl]-1H-indazol-1-yl}-N-(3,3-difluorocyclobutyl)acetamide] | 380 nM | 10 nM
Nc1cc(C(=O)N2CC(c3nn(Cc4nc(C(F)(F)F)no4)c4ccccc34)C2)ccn1 [Compound E-218] | 74 nM | 13 nM
Nc1cc(C(=O)N2CC(c3nn(CC(=O)NC4CCCC4(F)F)c4ccccc34)C2)ccn1 (stereo not drawn) [Compound E-225, 2-{3-[1-(2-aminopyridine-4-carbonyl)azetidin-3-yl}-1H-indazol-1-yl}-N-(2,2-difluorocyclopentyl)acetamide] | 450 nM | 17 nM
COC[C@@H]1CCCN1C(=O)Cn1nc(C2CN(C(=O)c3ccnc(N)c3)C2)c2ccccc21 [Compound E-228, 2-{3-[1-(2-aminopyridine-4-carbonyl)azetidin-3-yl}-1H-indazol-1-yl}-1-[(2S)-2-(methoxymethyl)pyrrolidin-1-yl]ethan-1-one] | 95 nM | 9 nM
